Patent US20200129922A1, “METHOD OF REDUCING CONCENTRATION OF FLUORINE-CONTAINING COMPOUND IN SAMPLE” (Samsung Electronics Co., Ltd., priority 2018, published 2020)

Key:
[1] = at 30° C.; cited from earlier work
[2] = Confirmation of solubility of CF4 for phosphonium ionic liquid (headspace CF4 by GC-MS); type: physicochemical; settings: 5 ml ionic liquid in 60 ml serum bottle, 200 ppm CF4 in upper empty space, 24 hours shaking; control distilled water
Procedure: 5 ml of a phosphonium ionic liquid was put in a 60 ml glass serum bottle, and CF4 was supplied to the upper empty space at a concentration of 200 ppm based on the volume of the empty space. After air-tightening by closing a lid, the bottle was incubated for 24 hours under shaking. Then, the air in the upper empty space was collected, and a concentration of CF4 was measured using gas chromatography mass-spectrum (GC-MS). Distilled water of the same volume was used as a control group.
The CF4 removal rates in Tables 1 and 2 were calculated from the following Mathematical Equation 1:
CF4 removal rate=[(initial CF4 content−CF4 content after reaction)/initial CF4 content]×100 <Mathematical Equation 1>

Compound | solubility of CF4 in water [1] [mg/mL] | CF4 reduction rate (%) [2] [%]
FC(F)(F)F [CF4] | 0.0171 | 
triethyl octyl phosphonium bis(trifluoromethylsulfonyl)imide [[P2228]^+ [NTf2]^−] |  | 13.9
trihexyl tetradecyl phosphonium bis(trifluoromethylsulfonyl)imide [[P66614]^+ [NTf2]^−] |  | 10.9
